Experimental data: paper doi:10.1101/2021.08.28.458030v1 (biorxiv, 2021)

Experiments:
CASTOR1 = molecular target: T1, CASTOR1 (Homo sapiens, UniProt Q8WTX7); assay: equilibrium dialysis MS; type: binding; conditions: 150 mM ammonium acetate pH 7.4, 4 C, metabolite pool
T1 sequence (Q8WTX7 1-329): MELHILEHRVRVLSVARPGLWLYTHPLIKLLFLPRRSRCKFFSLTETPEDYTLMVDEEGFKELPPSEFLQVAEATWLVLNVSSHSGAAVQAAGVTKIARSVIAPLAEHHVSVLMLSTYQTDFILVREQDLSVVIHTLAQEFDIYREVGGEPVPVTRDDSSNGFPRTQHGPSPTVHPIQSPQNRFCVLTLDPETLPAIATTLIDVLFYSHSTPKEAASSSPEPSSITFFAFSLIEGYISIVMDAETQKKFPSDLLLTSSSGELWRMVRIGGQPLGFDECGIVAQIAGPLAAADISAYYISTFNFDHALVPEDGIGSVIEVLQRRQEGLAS

[1] = molecular target: lactate dehydrogenase B (LDHB) (Homo sapiens, UniProt P07195); assay: NADH fluorometric LDH assay; type: biochemical
Chain of lactate dehydrogenase B (LDHB) (P07195 2-334): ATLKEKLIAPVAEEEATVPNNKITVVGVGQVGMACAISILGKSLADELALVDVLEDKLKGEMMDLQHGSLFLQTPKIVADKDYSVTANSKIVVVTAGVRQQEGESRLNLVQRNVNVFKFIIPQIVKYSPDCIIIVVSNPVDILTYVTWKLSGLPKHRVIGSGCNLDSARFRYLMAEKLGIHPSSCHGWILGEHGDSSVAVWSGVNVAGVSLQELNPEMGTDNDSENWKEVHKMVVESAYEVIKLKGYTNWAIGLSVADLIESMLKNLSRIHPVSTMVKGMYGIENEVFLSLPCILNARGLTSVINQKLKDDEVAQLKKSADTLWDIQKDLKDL

[2] = molecular target: T2, lactate dehydrogenase A (LDHA) (Homo sapiens, UniProt P00338); assay: biochemical
[3] = molecular target: T2, lactate dehydrogenase A (LDHA); assay: NADH fluorometric LDH assay; type: biochemical

Structure (SMILES)	equilibrium dialysis MS (MIDAS) (CASTOR1)	IC50 [1]	IC50 [2]	IC50 [3]
N=C(N)NCCC[C@H](N)C(=O)O [arginine]	CASTOR1 enriched arginine (Fig. 1C)	–	–	–
Nc1ncnc2c1ncn2[C@@H]1O[C@H](COP(=O)(O)OP(=O)(O)O)[C@@H](O)[C@H]1O [ADP]	–	14900 µM	–	5060 µM
CCCCCCCCCCCCCCCCCCCC(=O)SCCNC(=O)CCNC(=O)[C@H](O)C(C)(C)COP(=O)(O)OP(=O)(O)OC[C@H]1O[C@@H](n2cnc3c(N)ncnc32)[C@H](O)[C@@H]1OP(=O)(O)O [C20:0-CoA]	–	> 100 µM	1.01 µM	–
CCCCCCCC/C=C\CCCCCCCC(=O)SCCNC(=O)CCNC(=O)[C@H](O)C(C)(C)COP(=O)(O)OP(=O)(O)OC[C@H]1O[C@@H](n2cnc3c(N)ncnc32)[C@H](O)[C@@H]1OP(=O)(O)O [C18:1-CoA]	–	> 100 µM	0.8 µM	~1 µM
Nc1ncnc2c1ncn2[C@@H]1O[C@H](COP(=O)(O)O)[C@@H](O)[C@H]1O [AMP]	–	51400 µM	–	24400 µM

Other lines, results leading:

equilibrium dialysis MS (MIDAS) (CASTOR1)	IC50 [1]	IC50 [2]	IC50 [3]	Structure (SMILES)
–	> 100 µM	–	–	CCCC(=O)SCCNC(=O)CCNC(=O)[C@H](O)C(C)(C)COP(=O)(O)OP(=O)(O)OC[C@H]1O[C@@H](n2cnc3c(N)ncnc32)[C@H](O)[C@@H]1OP(=O)(O)O [C4:0-CoA]
–	> 100 µM	1.54 µM	~1 µM	CCCCCCCCCCCCCCCC(=O)SCCNC(=O)CCNC(=O)[C@H](O)C(C)(C)COP(=O)(O)OP(=O)(O)OC[C@H]1O[C@@H](n2cnc3c(N)ncnc32)[C@H](O)[C@@H]1OP(=O)(O)O [C16:0-CoA]
–	> 100 µM	–	–	CC(=O)SCCNC(=O)CCNC(=O)[C@H](O)C(C)(C)COP(=O)(O)OP(=O)(O)OC[C@H]1O[C@@H](n2cnc3c(N)ncnc32)[C@H](O)[C@@H]1OP(=O)(O)O [C2:0-CoA]
–	> 100 µM	–	–	CCCCCCCC(=O)SCCNC(=O)CCNC(=O)[C@H](O)C(C)(C)COP(=O)(O)OP(=O)(O)OC[C@H]1O[C@@H](n2cnc3c(N)ncnc32)[C@H](O)[C@@H]1OP(=O)(O)O [C8:0-CoA]
–	> 100 µM	–	> 100 µM	CCCCCCCCCCCC(=O)SCCNC(=O)CCNC(=O)[C@H](O)C(C)(C)COP(=O)(O)OP(=O)(O)OC[C@H]1O[C@@H](n2cnc3c(N)ncnc32)[C@H](O)[C@@H]1OP(=O)(O)O [C12:0-CoA]
